The subject of data set [1] is A. aegypti mosquitoes. As to the kind of experiment: Activity index calculation (volatility index x weight index). The following applies: volatility index multiplied by weight index; DEET = 1.00. On the procedure: The “activity index” is obtained by the multiplying the volatility index and the weight index. The activity index is an attempt to predict the combined effect of volatility and potency by weight in the usefulness of an insect control active ingredient for insect control of flying insects by passive evaporation. The following activity indices were calculated from the volatility and weight indices given, above: […]

Data set [2] can be described thus: Volatility index calculation (concentration in air from vapor pressure). Type of data set: physicochemical. The conditions noted are these: for CONCENTRATION IN AIR: calculated from vapor pressure by ideal gas equation, 20 to 25° C.; for VOLATILITY INDEX: concentration in the air relative to DEET at 20 to 25° C.
Data set [3] concerns A. aegypti mosquitoes. Description: Olfactometer test (repellency from target air stream). Type of data set: in vivo. The following applies: for mg to reach RD90: dose at which 90% of control population driven from target, 28 x 10 cm filter paper, female mosquitoes; for WEIGHT INDEX: ratio of weight of ingredient versus weight of DEET to achieve RD90, 25° C. The text has this: The olfactometer test provides a means for measuring the effect of a volatile active ingredient on flying insects under precisely controlled conditions. Mosquitoes are used as the test insect. In this and the other Examples, below, the mosquitoes were A. aegypti. The olfactometer used for the olfactory tests described below generates two uniform, laminar flow air streams. These air streams consist of a target air stream superimposed upon and centered within a carrier air stream.
The olfactometer provides a square testing surface with an area of 929 cm^2. The testing area consists of a circular target area of 42 cm^2 centered on a square background surface area of 887 cm^2. In the tests described, a 200 ml/min flow of carbon dioxide was introduced into the carrier air stream to activate the mosquitoes. […] The flow rate of the carrier air stream was 300 to 350 liters/min. […] Elevated temperature and humidity at the level described for the target air stream are known to be attractive to mosquitoes. The flow rate of the target air stream was 12 liters/min.
The olfactometer has an air flow duct through which the carrier air flow strewn passes. A glass cylinder having one closed and one open end, an internal diameter of 6 cm and a depth of 14 cm is located within the air flow duct, with the longitudinal axis of the glass cylinder oriented parallel to the direction of flow of the carrier air flow stream, with the open end of the cylinder pointing down stream. The target air stream is generated by releasing a flow of temperature and humidity conditioned air into the glass cylinder near its closed end, from which point the air flows the length of the glass cylinder to exit at its open end.
Active insect control ingredients to be tested are impregnated in a filter paper test substrate (Grade 615 from VWR Scientific Inc.) having a length of 28 cm and a width of 10 cm. The filter paper test substrate is folded into a fluted cylinder and inserted coaxially within the glass cylinder to rest at a location between the point where the air is released into the glass cylinder and the open end of the glass cylinder. By this arrangement, the target air stream is caused to pass over the surface of the filter paper test substrate so that any active insect control ingredient present in the filter paper test substrate may evaporate into the target air stream before the target air stream exits the glass cylinder to continue, embedded within the flow of the carrier air stream.
Cubic test cages having 30.5 cm edges were constructed of four glass panels, with two opposing sides of the cubic test cages being open. One open side was designated the test panel and was covered with an airflow-transmitting, mosquito-retaining mesh. The opposite open side was covered with a closeable sleeve made of a tubular, open-weave, mosquito-retaining fabric well known in the art as “stockinet.” For any given test, the test cage normally contained from 250 to 350 female mosquitoes.
The test cage was placed in the air stream with the test panel facing and perpendicular to the direction of flow of the air streams of the olfactometer. In order to allow the mosquitoes to become activated by the carbon dioxide of the air streams, the test cage first was placed in the olfactometer for an initial 5 minute conditioning exposure. The test cage then was removed from the olfactometer for 3 minutes and then placed back in the olfactometer for a second 5 minute conditioning exposure. The test cage was again removed from the olfactometer for 3 minutes, during which time a control filter paper test substrate was inserted within the glass cylinder of the olfactometer. The test cage was then placed on the olfactometer for a 10 minute control exposure. The same procedure was repeated, using each time a filter paper test substrate impregnated with increasing amounts of active insect control ingredient. […]

In data set [4] the test system is A. aegypti mosquitoes. Description: Chamber test, first series (box fan), mosquito repellency and knock-down. Type of data set: in vivo. The following applies: at least 50% repellency within 20 minutes with not more than a gram. The source says: The chamber test protocol was developed to realistically model actual use conditions for the insect control article of the invention. A closed, generally featureless, approximately 28 m^3, box-like test chamber is used, the size of a small room. Six mosquito knock-down cages are distributed vertically within the test chamber, suspended from poles adjacent to opposite test chamber side walls, where they can be observed from outside the test chamber through chamber windows. Mosquitoes in the cages are observed during a test to evaluate the ability of a material being tested to knock down mosquitoes. An insect “knocked down” is one that is incapable of flying and usually is moribund in appearance. The insect may or may not actually be dead. The knock-down cages are cylindrical, approximately 6 cm long and 8 cm in diameter, and have screened but otherwise open ends.
Two repellency mosquito cages are also provided. The repellency cages are box-like screened cages, approximately 73 cm long and 16 cm square in cross section. All of the walls of the repellency cages are screened but otherwise generally open. Each repellency cage is divided by a clear plastic partition into a first holding area, which occupies approximately 45 cm of the length of the cage, and a second holding area, which occupies the remaining 28 cm. The plastic partition has a 4 cm diameter hole in its center that provides the only route by which mosquitoes may pass between the two holding areas. The repellency cages are mounted in a test chamber wall, with the plastic partition located in the plane of the test chamber wall, and are so oriented that the first holding area projects inwardly, into the test chamber, while the second holding area projects through the test chamber wall, out into normal room air.
A mouse cage essentially identical to a mosquito knock-down cage is mounted on the end of the first holding chamber of each repellency test cage that faces toward the interior of the test chamber. The mouse cage is separated from the repellency cage only by a mosquito-proof screen. One mouse is placed in the mouse cage during a test to provide an attractant for mosquitoes being held in the repellency test cage. Mosquitoes in the first holding area of a repellency cage thus are attracted toward the mouse, on the one hand, and repelled by the insect control article being tested, on the other hand.
When a test is run, fifty female mosquitoes are placed in the first holding area of each mosquito cage, with the partition hole closed by a removable door. Ten female mosquitoes are placed in each knock-down cage. The insect control article to be tested is placed centrally within the test chamber and the air flow is initiated. At timed intervals up to a total testing period of two hours, each knock-down cage and each repellency cage is visually examined, and the location, number, and condition of the mosquitoes are noted. The number of mosquitoes that have been driven to the second holding area provides a measure of the repellency of the insect control article being tested. The number of mosquitoes knocked down in the knock-down cages is also recorded. The general success of an insect control article is judged by both the mosquitoes repelled and those knocked down, in that both effects reduce the total number of mosquitoes available for biting.
Two series of tests were run using the chamber test protocol to evaluate the effect of insect control articles made in accordance with the invention. […]

On to `Cc1c(F)c(F)c(COC(=O)[C@@H]2[C@H](/C=C(\Cl)C(F)(F)F)C2(C)C)c(F)c1F` (racemic) [Tefluthrin], for which the “ACTIVITY INDEX” value in the data set with A. aegypti mosquitoes [1] was 0.011. In addition, in data set [2], the “CONCENTRATION IN AIR” value is 1.37 × 10^−5 grams per liter and the “VOLATILITY INDEX” value is on record as 0.797. Moreover, in the data set on A. aegypti mosquitoes [3], the “mg to reach RD90” value is reported as 1.3 milligrams/filter paper test substrate and the “WEIGHT INDEX” value is given as 0.014.
The like results for `C=CCC1=C(C)C(OC(=O)[C@@H]2[C@@H](C=C(C)C)C2(C)C)CC1=O` (some centres unmarked) [Bioallethrin] were, in that order, 0.0049, 1.46 × 10^−6 grams per liter, 0.085, 5.5 milligrams/filter paper test substrate and 0.058.
The corresponding values for `CCN(CC)C(=O)c1cccc(C)c1` [DEET, N,N-diethyl-meta-toluamide] are 1.00, 1.72 × 10^−5 grams per liter, 1.00, 95 milligrams/filter paper test substrate and 1.00.
The like results for `C=CCC1=C(C)C(OC(=O)C2C(C=C(C)C)C2(C)C)CC1=O` (centres unmarked) [Allethrin (90% active), Allethrin] were, in that order, 0.0095, 1.92 × 10^−6 grams per liter, 0.112, 8.0 milligrams/filter paper test substrate and 0.085.
`CC(C)=CC1C(C(=O)OC(C#N)c2cccc(Oc3ccccc3)c2)C1(C)C` (centres unmarked) [Cyphenothrin]: in the data set with A. aegypti mosquitoes [1], the “ACTIVITY INDEX” value is “˜0.011”. For the same compound, in data set [2], the “CONCENTRATION IN AIR” value is 1.85 × 10^−8 grams per liter and the “VOLATILITY INDEX” value is listed as 0.0011. Further, in the data set with A. aegypti mosquitoes [3], the “mg to reach RD90” value is “˜1000 milligrams/filter paper test substrate” and the “WEIGHT INDEX” value was “˜10.5”.
The corresponding values for “Pentecychlothrin [Pentecychlothrin (Zhong X1)]” are 0.0018, 3.64 × 10^−7 grams per liter, 0.021, 8.1 milligrams/filter paper test substrate and 0.085.
Turning to `COP(=O)(OC)OC=C(Cl)Cl` [DDVP], in the data set on A. aegypti mosquitoes [4], the “practical insect control as defined (minimum practical control standard)” value (“practical insect control as defined” for short) is reported as “achieved”. In the data set on A. aegypti mosquitoes [1], the “ACTIVITY INDEX” value is 0.60. In data set [2], the “CONCENTRATION IN AIR” value is 2.63 × 10^−5 grams per liter and the “VOLATILITY INDEX” value was 1.53. Also, in the data set with A. aegypti mosquitoes [3], the “mg to reach RD90” value is 40 milligrams/filter paper test substrate and the “WEIGHT INDEX” value was determined as 0.42.
Turning to `C=CCC1=C(C)C(OC(=O)[C@@H]2[C@@H](C=C(C)C)C2(C)C)CC1=O` (some centres unmarked) [Esbiothrin], the “practical insect control as defined” value in the data set on A. aegypti mosquitoes [4] is given as “achieved”. In the data set with A. aegypti mosquitoes [1], the “ACTIVITY INDEX” value is 0.0146. In addition, in data set [2], the “CONCENTRATION IN AIR” value is 5.35 × 10^−6 grams per liter and the “VOLATILITY INDEX” value is reported as 0.311. In the data set on A. aegypti mosquitoes [3], the “mg to reach RD90” value is recorded as 4.5 milligrams/filter paper test substrate and the “WEIGHT INDEX” value was found to be 0.047.
With `C#CC(OC(=O)C1C(C=C(C)C)C1(C)C)/C(C)=C/CC` (centres unmarked) [Vaporthrin], the “practical insect control as defined” value with A. aegypti mosquitoes [4] is recorded as “achieved”. In addition, the “ACTIVITY INDEX” value in the data set on A. aegypti mosquitoes [1] is given as 0.033. In addition, in data set [2], the “CONCENTRATION IN AIR” value is given as 9.75 × 10^−6 grams per liter and the “VOLATILITY INDEX” value is given as 0.567. In the data set on A. aegypti mosquitoes [3], the “mg to reach RD90” value is reported as 5.3 milligrams/filter paper test substrate and the “WEIGHT INDEX” value was found to be 0.058.
With `CC1(C)C(C=C(Cl)Cl)C1C(=O)OCc1cccc(Oc2ccccc2)c1` (centres unmarked) [Permethrin], the “ACTIVITY INDEX” value with A. aegypti mosquitoes [1] was over 0.004. For the same compound, in data set [2], the “CONCENTRATION IN AIR” value is listed as 7.11 × 10^−9 grams per liter and the “VOLATILITY INDEX” value is given as 0.00041. In the data set with A. aegypti mosquitoes [3], the “mg to reach RD90” value is on record as >1000 milligrams/filter paper test substrate and the “WEIGHT INDEX” value is given as over 10.5.
As to `CNC(=O)Oc1ccccc1OC(C)C` [Propoxur (Baygon), Propoxur], in the data set on A. aegypti mosquitoes [3], the “mg to reach RD90” value is >120 milligrams/filter paper test substrate and the “WEIGHT INDEX” value was over 1.26.
As to `CC1(C)C(C=C(Cl)Cl)C1C(=O)OC(C#N)c1ccc(F)c(Oc2ccccc2)c1` (centres unmarked) [Cyfluthrin], in data set [2], the “CONCENTRATION IN AIR” value is recorded as <7.11 × 10^−9 grams per liter and the “VOLATILITY INDEX” value was under 0.00041. In the data set on A. aegypti mosquitoes [3], the “mg to reach RD90” value is reported as >1000 milligrams/filter paper test substrate and the “WEIGHT INDEX” value is reported as over 10.5.

The values above are taken from patent publication US6582714B1, “Article for insert control by passive evaporation of an active ingredient” (priority 1995, dated 2003).
